Data taken from patent US7803830B2, “3-amino-1-arylpropyl indoles and AZA-substituted indoles and uses thereof” (Roche Palo Alto LLC, priority 2005, dated 2010).
Counter-ions that a name gives are not always drawn.

Row | SMILES | melting point
1 | CNCCC(c1ccc2[nH]ccc2c1)c1ccc2nccnc2c1 (stereo not shown) [compound 123, [3-(1H-lndol-5-yl)-3-quinoxalin-6-yl-propyl]-methyl-amine] | 60.3 to 62 °C
2 | CNCCC(c1ccc2[nH]ccc2c1)c1ccc2[nH]ccc2c1 [compound 111, [3,3-Bis-(1H-indol-5-yl)-propyl]-methyl-amine] | 142 to 152 °C
3 | NCCC(c1ccc2ncccc2c1)c1ccc2[nH]ccc2c1 (stereo not shown) [compound 120, 3-(1H-Indol-5-yl)-3-quinolin-6-yl-propylamine] | 60.9 to 62.9 °C
4 | CNCCC(c1cccc(Cl)c1)c1ccc2cc[nH]c2c1 (stereo not shown) (as salt: HCl) [compound 36, [3-(3-Chloro-phenyl)-3-(1H-indol-6-yl)-propyl]-methyl-amine] | 62 to 63 °C

Other lines, results leading:

Row | melting point | SMILES
5 | > 300 °C | CNCCC(c1ccc2cc[nH]c2c1)c1ccccn1 (stereo not shown) (as salt: HCl) (hydrate or solvate) [compound 21]
6 | 130.6 to 133.1 °C | CNCCC(c1ccccc1)c1cccc2[nH]ncc12 (stereo not shown) (as salt: HCl) [compound 49, [3-(1H-Indazol-4-yl)-3-phenyl-propyl]-methyl-amine]
7 | 64.5 to 66 °C | CNCCC(c1ccccc1)c1ccc2[nH]nc(C)c2c1 (stereo not shown) (as salt: TFA) [compound 58, Methyl-[3-(3-methyl-1H-indazol-5-yl)-3-phenyl-propyl]-amine]
8 | 56 to 58 °C | CNCCC(c1cnc2ccccc2c1)c1ccc2[nH]ccc2c1 (stereo not shown) [compound 137, [3-(1H-Indol-5-yl)-3-quinolin-3-yl-propyl]-methyl-amine]
9 | 62 to 68.1 °C | CNCC[C@@H](c1ccccc1)c1cccc2cn[nH]c12 (as salt: TFA) [compound 56, [(S)-3-(1H-Indazol-7-yl)-3-phenyl-propyl]-methyl-amine]
10 | 61.9 to 65.7 °C | CNCC[C@H](c1ccccc1)c1cccc2cn[nH]c12 (as salt: TFA) [compound 55, [(R)-3-(1H-Indazol-7-yl)-3-phenyl-propyl]-methyl-amine]
